Laboratory results taken from patent US10280198B2, “Therapeutic agents for reducing parathyroid hormone levels” (KAI PHARMACEUTICALS, INC., priority 2009, dated 2019).
Where two headings read alike, the source gives them in different places. Square brackets hold non-standard residues; d marks the D form. Peptide text beside a SMILES is read from it.

Experiments:
plasma PTH = test: In vivo PTH lowering after IV bolus in isoflurane-anesthetized normal Sprague Dawley rats; set-up: species or system rat; details: for 0.5 mg/kg IV bolus % PTH AUC of saline control / duration of decreased PTH: normal rats; for duration of decreased PTH: 0.5 mg/kg IV bolus, FIG. 5
In short: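 Peptides were given as a 0.5 mg/kg IV bolus to normal Sprague Dawley rats kept under isoflurane throughout, with saline bolus controls.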

[1] = system: rat peritoneal mast cells; test: In vitro histamine induction in rat peritoneal mast cells; type: cell-based
In short: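 Mast cells from peritoneal lavage of Sprague Dawley rats were incubated with compound at 10 μM for 15 min at 37 °C in HBSS + 25 mM HEPES pH 7.4. Supernatant histamine measured by EIA; response expressed as fold change versus pre-incubation levels.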

plasma histamine = details: rat
Protocol: For the in vivo evaluation of histamine release, compounds were dosed in isoflurane-anesthetized normal rats at 2 mg/kg by IV bolus (administered over less than one minute). Plasma histamine was measured 5 minutes after compound administration (Cayman histamine EIA #589651).

[2] = target: T1, human calcium-sensing receptor (CaSR) (Homo sapiens, UniProt P41180); test: In vitro cell assay in HEK-293 expressing the human calcium-sensing receptor (IP1 production); type: cell-based
T1 construct: expressed in transfected cells; host or cells: HEK 293T cells, transiently transfected (lipofectamine 2000); in some cases HEK293 cells stably transfected
T1 sequence (P41180 20-1078): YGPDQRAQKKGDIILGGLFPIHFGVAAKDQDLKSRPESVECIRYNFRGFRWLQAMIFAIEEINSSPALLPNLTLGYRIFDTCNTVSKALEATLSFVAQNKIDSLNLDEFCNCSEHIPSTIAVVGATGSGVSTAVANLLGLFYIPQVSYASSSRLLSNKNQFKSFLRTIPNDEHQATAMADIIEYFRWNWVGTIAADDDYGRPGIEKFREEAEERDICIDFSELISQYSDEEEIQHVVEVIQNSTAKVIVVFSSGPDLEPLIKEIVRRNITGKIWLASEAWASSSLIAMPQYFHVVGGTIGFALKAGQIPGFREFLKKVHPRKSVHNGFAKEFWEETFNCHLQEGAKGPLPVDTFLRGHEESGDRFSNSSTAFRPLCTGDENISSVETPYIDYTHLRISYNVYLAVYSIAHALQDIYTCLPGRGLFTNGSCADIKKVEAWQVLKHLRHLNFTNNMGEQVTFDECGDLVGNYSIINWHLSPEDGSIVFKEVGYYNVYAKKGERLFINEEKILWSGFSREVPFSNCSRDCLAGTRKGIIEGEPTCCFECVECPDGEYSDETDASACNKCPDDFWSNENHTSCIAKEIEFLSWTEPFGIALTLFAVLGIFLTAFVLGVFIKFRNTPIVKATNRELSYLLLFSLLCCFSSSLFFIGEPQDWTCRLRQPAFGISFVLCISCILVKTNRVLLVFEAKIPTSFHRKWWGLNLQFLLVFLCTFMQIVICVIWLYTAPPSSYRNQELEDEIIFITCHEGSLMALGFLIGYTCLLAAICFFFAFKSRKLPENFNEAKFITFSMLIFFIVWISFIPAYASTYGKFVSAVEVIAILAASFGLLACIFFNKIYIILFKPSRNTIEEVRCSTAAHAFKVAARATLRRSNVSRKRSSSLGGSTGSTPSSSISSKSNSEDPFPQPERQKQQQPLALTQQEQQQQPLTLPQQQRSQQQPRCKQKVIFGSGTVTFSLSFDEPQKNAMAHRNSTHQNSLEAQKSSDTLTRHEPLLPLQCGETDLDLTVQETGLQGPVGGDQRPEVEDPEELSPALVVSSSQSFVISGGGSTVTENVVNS
Protocol: The activity of a variety of peptides and conjugates was tested against the human CaSR. These studies were conducted by measuring IP1 production in HEK293 cells that express the human CaSR. Each peptide was tested in eight different concentrations, in duplicates, to establish a dose response curve. Curve fitting was performed using GraphPad Prism. In Table 5, and throughout the specification, residues provided in capital letters are L-amino acids, while lower case letters indicate D-amino acids. “Ac” indicates an acetyl capping group, “NH2” indicates an amide capping group, “Ac-bAla” is an acetylated beta-alanine, “GSH” indicates reduced glutathione, “GS” indicates oxidized glutathione, “PEG” refers to polyethylene glycol, “PEG2” and “PEGS” refer to polyethylene glycol moieties of 2 kDa and 5 kDa, respectively, and “Mpa” refers to mercaptopropionic acid.
The day after, these cells were transfected with human CaSR receptor using lipofectamine 2000 transfection reagent 24 hrs post transfection, cells were seeded in 384 well plates at 8,000 cells/well. […] In some cases, EC50 values were determined by measuring inositol monophosphate production in the HEK293 cells, stably transfected with the human calcium-sensing receptor (see Table 1).
Cells were incubated with compounds at various concentrations (1 mM or 300 μM as the highest and further ½ log serial dilutions) at 37° C. for 1.5 hrs before reaction termination. […] In brief, incubation with the compound was terminated by sequentially adding D2 labeled-IP1 and cryptate-labeled anti-IP1 in lysis buffer and further incubating at room temperature for 60 minutes. […] Non-transfected 293 cells were used as negative control.
IP1 concentrations were calculated from standard curves (generated with Graph Pad Prism ver. 4) using known concentrations of IP1 standards.

[3] = Table 1, IP1 in HEK293 cells expressing human CaSR, read-out: In vitro EC50
[4] = Table 5, IP1 production in HEK293 cells expressing human CaSR, eight concentrations in duplicate, read-out: EC50 in CaSR in vitro assay
[5] = Table 1, isoflurane-anesthetized normal rats, 0.5 mg/kg IV, 1 hour
[6] = Table 1, PTH at 1, 2, 3, 4 h, AUCcmpd treated/AUCsaline control*100

In the case of CC(=O)N[C@H](CS)C(=O)N[C@H](CCCNC(=N)N)C(=O)N[C@H](C)C(=O)N[C@H](CCCNC(=N)N)C(=O)N[C@H](CCCNC(=N)N)C(=O)N[C@H](CCCNC(=N)N)C(=O)N[C@H](C)C(N)=O [SEQ ID NO: 20, Ac-crarrra-NH2] (Ac-[dC][dR][dA][dR][dR][dR][dA]-NH2), the “% PTH reduction of baseline at 1 hour post IV administration of 0.5 mg/kg compound” value (plasma PTH; Table 2, isoflurane-anesthetized normal rats, 0.5 mg/kg IV, 1 hour) is reported as 45%, the “0.5 mg/kg IV bolus % PTH AUC of saline control” value (“0.5 mg/kg IV bolus % PTH AUC” for short) (plasma PTH; Table 2, AUC 1-4 h) is reported as 69% and the “Histamine in vitro Fold change of non-treated at 10 uM” value [1] is reported as 1.1 fold. For the same compound, the “Histamine response in vivo Fold change from pre-dose levels 5′ post injection 2 mg/kg IV bolus” value (plasma histamine) was 1.0 fold.

In the case of CC(=O)N[C@H](CS)C(=O)N[C@H](CCCNC(=N)N)C(=O)N[C@H](CCCNC(=N)N)C(=O)N[C@H](CCCNC(=N)N)C(=O)N[C@H](CCCNC(=N)N)C(=O)N[C@H](CCCNC(=N)N)C(=O)N[C@H](C)C(N)=O [SEQ ID NO: 13, Ac-crrrrra-NH2] (Ac-[dC][dR][dR][dR][dR][dR][dA]-NH2), the EC50 [2, 3] is reported as 1100 nM, the EC50 [2, 4] is reported as 1100 nM and the “% PTH reduction of baseline at 1 hour post IV admin. of 0.5 mg/kg compound” value (plasma PTH; [5]) is reported as 4%. For the same compound, the “0.5 mg/kg IV bolus % PTH AUC” value (plasma PTH; [6]) was 28% and the “Histamine in vitro Fold change of non-treated at 10 uM” value [1] was 4.1 fold.

With CC(=O)N[C@H](CS)C(=O)N[C@H](C)C(=O)N[C@H](CCCNC(=N)N)C(=O)N[C@H](CCCNC(=N)N)C(=O)N[C@H](CCCNC(=N)N)C(=O)N[C@H](CCCNC(=N)N)C(=O)N[C@H](CCCNC(=N)N)C(N)=O [SEQ ID NO: 8, Ac-carrrrr-NH2] (Ac-[dC][dA][dR][dR][dR][dR][dR]-NH2) the EC50 [2, 3] was 1100 nM, the EC50 [2, 4] was 1100 nM and the “duration of decreased PTH” value (plasma PTH) was “at least four hours”. The “PTH-lowering activity in normal rats” value (plasma PTH; 0.5 mg/kg single IV administration) was “below the detection limit or essentially zero”, the “% PTH reduction of baseline at 1 hour post IV admin. of 0.5 mg/kg compound” value (plasma PTH; [5]) was 0% and the “0.5 mg/kg IV bolus % PTH AUC” value (plasma PTH; [6]) was 0%. For the same compound, the “Histamine in vitro Fold change of non-treated at 10 uM” value [1] was 6.6 fold.

In the case of CC(=O)N[C@H](CS)C(=O)N[C@H](CCCNC(=N)N)C(=O)N[C@H](CCCNC(=N)N)C(=O)N[C@H](CCCNC(=N)N)C(=O)N[C@H](C)C(=O)N[C@H](CCCNC(=N)N)C(=O)N[C@H](CCCNC(=N)N)C(N)=O [SEQ ID NO: 11, Ac-crrrarr-NH2] (Ac-[dC][dR][dR][dR][dA][dR][dR]-NH2), the EC50 [2, 3] is reported as 5900 nM, the EC50 [2, 4] is reported as 5900 nM and the “% PTH reduction of baseline at 1 hour post IV admin. of 0.5 mg/kg compound” value (plasma PTH; [5]) is reported as 9%. For the same compound, the “0.5 mg/kg IV bolus % PTH AUC” value (plasma PTH; [6]) was 45% and the “Histamine in vitro Fold change of non-treated at 10 uM” value [1] was 5.0 fold.

For CC(=O)N[C@H](CS)C(=O)N[C@H](CCCNC(=N)N)C(=O)N[C@H](CCCNC(=N)N)C(=O)N[C@H](CCCNC(=N)N)C(=O)N[C@H](CCCNC(=N)N)C(=O)N[C@H](C)C(=O)N[C@H](CCCNC(=N)N)C(N)=O [SEQ ID NO: 12, Ac-crrrrar-NH2] (Ac-[dC][dR][dR][dR][dR][dA][dR]-NH2), the EC50 [2, 3] was 450 nM, the EC50 [2, 4] was 450 nM and the “duration of decreased PTH” value (plasma PTH) was “at least four hours”. For the same compound, the “% PTH reduction of baseline at 1 hour post IV admin. of 0.5 mg/kg compound” value (plasma PTH; [5]) was 3%, the “0.5 mg/kg IV bolus % PTH AUC” value (plasma PTH; [6]) was 3% and the “Histamine in vitro Fold change of non-treated at 10 uM” value [1] was 5.0 fold.
